Source: US12616695B2, “Use of 5-amino-2,3-dihydro-1,4-phthalazinedione in the treatment of rare chronic inflammatory pulmonary diseases” (Metriopharm AG, priority 2020, dated 2026)
Where two headings read alike, the source gives them in different places.

System: cigarette smoke-induced 3-nitrotyrosine formation in the lung parenchyma
Settings: for 3-nitrotyrosine stained surface area, mean ± SEM: n=5 mice, room air 0.24 ± 0.09, cigarette smoke + diluent 3.07 ± 0.39
Experimental: 5-amino-2,3-dihydro-1,4-phthalazinedione sodium salt Form I was tested in an isolated, ventilated and perfused mouse lung system that was stimulated with cigarette smoke.
The isolated, ventilated and perfused mouse lung system (ILU) is an established model for studying acute effects of various conditions and drugs on lung parenchyma and vasculature. It is mainly used for examining effects of hypoxia and for evaluating the efficacy of potential drugs on the hypoxic pulmonary vasoreaction (cf. Weissmann et al. (2006) Proc Natl Acad Sci USA 103: 19093-19098).
C57BL/6J mice (n=25, 5 per group; male/female, 3-6 months, 20-30 g; Charles River GmbH, Sulzfeld, Germany) were anesthetized with a ketamine (100 mg/kg body weight) and xylazine (20 mg/kg body weight) intraperitoneal injection (Ceva Tiergesundheit GmbH, Dusseldorf, Germany) containing heparin (50 I.E. heparin/g body weight; Ratiopharm GmbH, Ulm, Germany). The lungs and the heart were removed from the chest cavity and placed on the ILU system (see FIGS. 1A and 1B). Lungs were ventilated in an isolated chamber using normoxic gas (21% O2, 5% CO2, 74% N2; 150 breaths per minute at the PEEP (positive end-expiratory pressure) of 3 cm H2O) and perfused with a modified Krebs-Henseleit buffer (120.0 mM NaCl, 4.3 mM KCl, 1.1 mM KH2PO4, 2.4 mM CaCl2, 1.3 mM MgCl2, 13.14 mM glucose, 0.25 mM hydroxyethyl starch 200000/0.5, 25.0 mM NaHCO3 adjusted to a constant pH range of […] L-arginine; Serag-Wissner GmbH & Co. KG, Naila, Germany) at a temperature of 37° C. Lung weight, right and left ventricle pressure, as well as ventilatory pressure were monitored and recorded during the whole experimental procedure. After 5-10 minutes, when the lung was properly flushed and all the parameters were stable, 5-amino-2,3-dihydro-1,4-phthalazinedione sodium salt was applied by adding 150 μl of a stock solution to 15 ml of the circulating perfusion buffer. The substance was applied 10 minutes prior to the first cigarette smoke application. Cigarette smoke was applied via trachea while lung is perfused with the buffer containing 5-amino-2,3-dihydro-1,4-phthalazinedione sodium salt. Cigarette smoke was prepared freshly before each application, by burning one cigarette (research cigarettes 3R4F, University of Kentucky, USA) in one minute using normoxic gas at the flow of 11/min and collected in a 1 I glass bottle containing 5 g silica gel for removing the moist from the cigarette smoke. 50 ml of the cigarette smoke were taken via a syringe and applied to the lung via trachea (FIG. 1A) in deep breaths (periodic inflation for 3-4 s) over a period of 5 min. The application was done manually while carefully monitoring the inspiratory pressure to avoid damage of the lung. The cigarette smoke application was repeated three times with a 1 hour break in-between.
Five treatment groups (n=5, respectively) were investigated: • A: room air exposure • B: cigarette smoke+diluent (buffer solution) • C: cigarette smoke+0.5 mM 5-amino-2,3-dihydro-1,4-phthalazinedione sodium salt • D: cigarette smoke+1 mM 5-amino-2,3-dihydro-1,4-phthalazinedione sodium salt • E: cigarette smoke+2 mM 5-amino-2,3-dihydro-1,4-phthalazinedione sodium salt
5-amino-2,3-dihydro-1,4-phthalazinedione sodium salt Form I was dissolved in water for injection (vehicle) at the required concentrations described above. Stock solutions were prepared in water for injection. Further 1:100 dilutions were made with modified Krebs-Henseleit buffer (see above). Stock solutions were stored at −70° C. in appropriate aliquots. The required amount of stock solution was thawed, and the corresponding working solution was prepared for immediate use.
One hour after the third cigarette smoke application lungs were removed from the system and fixed by inflating with formalin solution (via trachea) at the pressure of 12-15 cm H2O for two hours at room temperature.

## Nc1cccc2c(=O)[nH][nH]c(=O)c12.[Na] [5-amino-2,3-dihydro-1,4-phthalazinedione sodium salt]
0.5 mM in perfusion buffer (FIG. 2C)
  effect on cigarette smoke induced 3-nitrotyrosine formation (in words): moderate effect
1 mM in perfusion buffer (FIG. 2D)
  effect on cigarette smoke induced 3-nitrotyrosine formation (in words): almost completely abolished
2 mM in perfusion buffer (FIG. 2E)
  effect on cigarette smoke induced 3-nitrotyrosine formation (in words): almost completely abolished
Cigarette smoke + 0.5 mM in perfusion buffer
  3-nitrotyrosine stained surface area, mean ± SEM: 2.24 ± 0.28 % area
Cigarette smoke + 1 mM in perfusion buffer
  3-nitrotyrosine stained surface area, mean ± SEM: 0.72 ± 0.26 % area
Cigarette smoke + 2 mM in perfusion buffer
  3-nitrotyrosine stained surface area, mean ± SEM: 0.37 ± 0.13 % area
pre-treatment 10 minutes prior to the first cigarette smoke application, ILU model
  cigarette smoke-induced 3-nitrotyrosine formation in the lung parenchyma, conclusion (in words): prevents cigarette smoke-induced 3-nitrotyrosine formation
Summary over 0.5, 1 and 2 mM
  ROS/RNS levels in cigarette smoke-stimulated mouse lung (in words): dose-dependent reduction of ROS/RNS levels down to control levels
